Experimental data published in ChEMBL document CHEMBL4265976, “Synthesis, molecular docking and inhibition studies of novel 3-N-aryl substituted-2-heteroarylchromones targeting microtubule affinity regulating kinase 4 inhibitors” (Eur J Med Chem, 2018).
Active and inactive are the calls of the source. The calls are words filed in the database; no cut-off is given here.

How the values were obtained:
[1] = target: T1, MAP/microtubule affinity-regulating kinase 4 (Homo sapiens, UniProt Q96L34); assay: Inhibition of MARK4 (unknown origin) (59 to 368 residues) expressed in Escherichia coli M15 in presence of [gamma-32P]ATP by ATPase assay
T1 sequence (Q96L34 whole entry): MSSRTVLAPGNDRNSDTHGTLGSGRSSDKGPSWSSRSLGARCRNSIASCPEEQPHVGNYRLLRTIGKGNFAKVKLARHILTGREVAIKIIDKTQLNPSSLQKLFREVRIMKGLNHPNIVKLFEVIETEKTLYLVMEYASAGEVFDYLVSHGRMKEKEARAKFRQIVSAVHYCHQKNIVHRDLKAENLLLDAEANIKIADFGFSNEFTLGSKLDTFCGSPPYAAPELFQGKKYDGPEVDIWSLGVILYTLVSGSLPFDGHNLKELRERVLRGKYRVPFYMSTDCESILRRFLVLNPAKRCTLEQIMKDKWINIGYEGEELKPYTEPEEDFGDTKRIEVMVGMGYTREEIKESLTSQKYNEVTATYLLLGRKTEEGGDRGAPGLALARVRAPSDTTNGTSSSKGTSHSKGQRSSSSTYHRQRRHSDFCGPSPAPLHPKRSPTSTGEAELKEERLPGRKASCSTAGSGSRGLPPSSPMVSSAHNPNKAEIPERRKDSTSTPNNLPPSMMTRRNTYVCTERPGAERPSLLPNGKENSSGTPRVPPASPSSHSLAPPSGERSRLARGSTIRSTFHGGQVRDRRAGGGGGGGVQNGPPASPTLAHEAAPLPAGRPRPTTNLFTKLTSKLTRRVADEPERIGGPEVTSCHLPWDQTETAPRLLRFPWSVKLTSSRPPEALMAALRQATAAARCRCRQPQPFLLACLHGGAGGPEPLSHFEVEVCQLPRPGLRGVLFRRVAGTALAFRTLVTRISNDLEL

[2] = target: T2, MAP/microtubule affinity-regulating kinase 4 (Homo sapiens) (UniProt Q96L34); assay: Inhibition of MARK4 (unknown origin) (59 to 368 residues) expressed in Escherichia coli M15 3 to 10 uM by dot blot assay
T2 sequence (whole entry): T1 sequence (Q96L34 whole entry)

[3] = target: T2, MAP/microtubule affinity-regulating kinase 4 (Homo sapiens); assay: Binding affinity to MARK4 (unknown origin) (59 to 368 residues) expressed in Escherichia coli M15 up to 10 uM by fluorescence based Stern-Volmer plot analysis
MCF7 [4] = assay: Antiproliferative activity against human MCF7 cells after 48 hrs by MTT assay; assay type: functional, cell-based; conditions: for IC50: MCF7, 48 h
HepG2 [5] = assay: Antiproliferative activity against human HepG2 cells after 48 hrs by MTT assay; assay type: functional, cell-based; conditions: for IC50: HepG2, 48 h
[6] = Cytotoxicity against human HEK293 cells assessed as cell viability up to 200 uM after 72 hrs by MTT assay relative to control; assay type: cell-based; conditions: read-out: Activity
MCF7 [7] = assay: Induction of apoptosis in human MCF7 cells assessed as viable cells at IC50 after 24 to 48 hrs by Annexin V-FITC staining-based flow cytometric analysis relative to control; assay type: functional
MCF7 [8] = assay: Induction of apoptosis in human MCF7 cells assessed as early apoptotic cells at IC50 after 24 to 48 hrs by Annexin V-FITC staining-based flow cytometric analysis (reference value: 0%); assay type: functional
MCF7 [9] = assay: Induction of apoptosis in human MCF7 cells assessed as late apoptotic cells at IC50 after 24 to 48 hrs by Annexin V-FITC staining-based flow cytometric analysis (reference value: 0%); assay type: functional
MCF7 [10] = assay: Induction of apoptosis in human MCF7 cells assessed as necrotic cells at IC50 after 24 to 48 hrs by Annexin V-FITC staining-based flow cytometric analysis (reference value: 0%); assay type: functional
HepG2 [11] = assay: Induction of apoptosis in human HepG2 cells assessed as viable cells at IC50 after 24 to 48 hrs by Annexin V-FITC staining-based flow cytometric analysis relative to control; assay type: functional
HepG2 [12] = assay: Induction of apoptosis in human HepG2 cells assessed as early apoptotic cells at IC50 after 24 to 48 hrs by Annexin V-FITC staining-based flow cytometric analysis (reference value: 0%); assay type: functional
HepG2 [13] = assay: Induction of apoptosis in human HepG2 cells assessed as late apoptotic cells at IC50 after 24 to 48 hrs by Annexin V-FITC staining-based flow cytometric analysis (reference value: 0%); assay type: functional
HepG2 [14] = assay: Induction of apoptosis in human HepG2 cells assessed as necrotic cells at IC50 after 24 to 48 hrs by Annexin V-FITC staining-based flow cytometric analysis (reference value: 0%); assay type: functional
[15] = target: T2, MAP/microtubule affinity-regulating kinase 4 (Homo sapiens); assay: Inhibition of MARK4-mediated tau phosphorylation in human MCF7 cells at IC50 after 24 hrs by flow cytometric analysis; assay type: cell-based
MCF7 [16] = assay: Induction of ROS generation in human MCF7 cells at IC50 after 5 to 6 hrs by DCFDA staining based flow cytometric analysis; assay type: functional, cell-based

Row | Compound | IC50 [1] | inhibition [2] | Activity [3] | Activity (MCF7 [4]) | IC50 (MCF7 [4]) | Activity (HepG2 [5]) | IC50 (HepG2 [5]) | viability at 72 h [6] | Activity (MCF7 [7]) | Activity (MCF7 [8]) | Activity (MCF7 [9]) | Activity (MCF7 [10]) | Activity (HepG2 [11]) | Activity (HepG2 [12]) | Activity (HepG2 [13]) | Activity (HepG2 [14]) | inhibition [15] | Activity (MCF7 [16])
1 | COc1ccc(Nc2c(-c3ccco3)oc3ccccc3c2=O)cc1 | 5.56 µM | Active | Active | Dose-dependent effect | 16.2 µM | Dose-dependent effect | 19.1 µM | 85% | 80.1% | 18.7% | 1.21% | 0.027% | 87% | 5.13% | 4.79% | 3.12% | Active | Active
2 | O=c1c(Nc2ccc([N+](=O)[O-])cc2)c(-c2ccco2)oc2c(Cl)cc(Cl)cc12 | 2.12 µM | Active | Active | Dose-dependent effect | 3.22 µM | Dose-dependent effect | 6.45 µM | 85% | 55.8% | 26.5% | 15.9% | 1.72% | 80.6% | 8.53% | 6.54% | 4.33% | Active | Active
3 | O=c1c(Nc2ccc(I)cc2)c(-c2ccco2)oc2c(Cl)cc(Cl)cc12 | 1.98 µM | Active | Active | Dose-dependent effect | 4.32 µM | Dose-dependent effect | 5.22 µM | 85% | 70.1% | 27.9% | 1.9% | 0.15% | 82.3% | 15.2% | 2.56% | 0.013% | Active | Active
